# Paper PMC8371902, “Phase 1 study of M2698, a p70S6K/AKT dual inhibitor, in patients with advanced cancer” (Journal of Hematology & Oncology, 2021)
# Entries after “also recorded” stand apart in the source; their conditions may differ.
# Test system: patients with advanced metastatic cancer
# Text: In this phase 1 study, dose escalation was followed by expansion cohorts of once-daily, oral M2698 in continuous 21-day cycles. Primary objectives were to determine the maximum tolerated dose (MTD), dose-limiting toxicities (DLTs), and recommended phase 2 dose (RP2D). Secondary objectives were to assess safety and tolerability, pharmacokinetics (PK, including food effect) and antitumor activity. Pharmacodynamic biomarker assessments were exploratory. Treatment was discontinued if there was disease progression, toxicity or consent withdrawal.
# In Part 1, M2698 monotherapy was investigated in a dose escalation with a food effect cohort. In Part 2, M2698 was investigated as monotherapy (expansion cohort) to further characterize safety, tolerability and pharmacokinetics, and assess antitumor activity in PAM + patients without confounding markers (exploratory).
# Dose escalation analysis included all patients who experienced a DLT and those who received ≥ 80% of planned M2698 doses in cycle 1 without experiencing a DLT. Safety analysis included all patients who received ≥ 1 dose of M2698. PK analysis included all patients who received ≥ 1 dose of M2698 and had measurable plasma concentrations. Dose proportionality was tested using the power model (linear regression approach on the log -transformed scale).
compound,measurement,setting,value
NC(=O)c1cccc2c(N[C@H](CN3CCC3)c3ccc(Cl)c(C(F)(F)F)c3)ncnc12 [M2698],M2698-related TEAE: Vomiting,Overall N=62,2 (3.2) n (%)
same,M2698-related TEAE: White blood cell count decreased,Overall N=62,1 (1.6) n (%)
same,Maximum tolerated dose (MTD) of M2698,daily,no formal MTD was determined; also recorded: no MTD was reached
same,Number of DLTs observed,dose escalation,two
same,Grade >3 TEAE: GGT increased,in vivo,4.8%
same,Grade >3 TEAE: abdominal pain,in vivo,3.2%
same,Grade >3 TEAE: acute kidney injury,in vivo,4.8%
same,Grade >3 TEAE: acute respiratory failure,in vivo,3.2%
same,Grade >3 TEAE: anemia,in vivo,9.7%
same,Grade >3 TEAE: blood AP increased,in vivo,3.2%
same,Grade >3 TEAE: blood creatine phosphokinase increased,in vivo,3.2%
same,Grade >3 TEAE: cardiac arrest,in vivo,3.2%
same,Grade >3 TEAE: constipation,in vivo,3.2%
same,Grade >3 TEAE: disease progression,in vivo,3.2%
same,Grade >3 TEAE: hypertension,in vivo,3.2%
same,Grade >3 TEAE: hyponatremia,in vivo,6.5%
same,Grade >3 TEAE: nausea,in vivo,3.2%
same,Grade >3 TEAE: pleural effusion,in vivo,3.2%
same,Grade >3 TEAE: pneumonia,in vivo,4.8%
same,Grade >3 TEAE: septic shock,in vivo,3.2%
same,Grade >3 TEAE: small intestinal obstruction,in vivo,3.2%
same,Grade >3 TEAE: urinary tract infection,in vivo,4.8%
same,Grade >3 TEAE: vomiting,in vivo,4.8%
same,M2698-related TEAE abnormal dreams,in vivo,9.7%
same,M2698-related TEAE diarrhea,in vivo,11.3%
same,M2698-related TEAE fatigue,in vivo,6.5%
same,M2698-related TEAE nausea,in vivo,19.4%
same,M2698-related TEAE tremor,in vivo,6.5%
same,M2698-related TEAE: Abnormal dreams,in vivo,6 (9.7) number of patients (percent)
same,M2698-related TEAE: Diarrhea,in vivo,7 (11.3) number of patients (percent)
same,M2698-related TEAE: Fatigue,in vivo,4 (6.5) number of patients (percent)
same,M2698-related TEAE: Nausea,in vivo,12 (19.4) number of patients (percent)
same,M2698-related TEAE: Tremor,in vivo,4 (6.5) number of patients (percent)
same,M2698-related TEAEs: patients with ≥1 event,in vivo,34 (54.8) number of patients (percent)
same,Patients with M2698-related TEAEs,in vivo,54.8%
same,Patients with M2698-related TEAEs grade ≥ 3,in vivo,12.9%
same,Serious TEAE related to M2698,in vivo,5 (8.1) number of patients (percent)
same,Serious TEAEs,in vivo,26 (41.9) number of patients (percent)
same,Serious TEAEs attributed to M2698,in vivo,8.1 % of patients
same,TEAE leading to permanent discontinuation of any trial treatment,in vivo,6 (9.7%) number of patients (percent)
same,TEAE leading to temporary discontinuation of M2698,in vivo,29 (46.8%) number of patients (percent)
same,TEAE related to M2698,in vivo,34 (54.8%) number of patients (percent)
same,"TEAE related to M2698, grade ≥ 3",in vivo,8 (12.9%) number of patients (percent)
same,TEAE: ALT increased,in vivo,4 (6.5) n (%)
same,TEAE: AST increased,in vivo,2 (3.2) n (%)
same,TEAE: Abdominal pain,in vivo,5 (8.1) n (%)
same,TEAE: Abnormal dreams,in vivo,6 (9.7) n (%)
same,TEAE: Anemia,in vivo,13 (21.0) n (%)
same,TEAE: Anxiety,in vivo,6 (9.7) n (%)
same,TEAE: Arthralgia,in vivo,1 (1.6) n (%)
same,TEAE: Asthenia,in vivo,2 (3.2) n (%)
same,TEAE: Back pain,in vivo,2 (3.2) n (%)
same,TEAE: Blood AP increased,in vivo,4 (6.5) n (%)
same,TEAE: Blood bilirubin increased,in vivo,2 (3.2) n (%)
same,TEAE: Blood creatinine increased,in vivo,7 (11.3) n (%)
same,TEAE: Chills,in vivo,2 (3.2) n (%)
same,TEAE: Constipation,in vivo,14 (22.6) n (%)
same,TEAE: Cough,in vivo,11 (17.7) n (%)
same,TEAE: Decreased appetite,in vivo,9 (14.5) n (%)
same,TEAE: Dehydration,in vivo,7 (11.3) n (%)
same,TEAE: Depression,in vivo,3 (4.8) n (%)
same,TEAE: Diarrhea,in vivo,17 (27.4) n (%)
same,TEAE: Disease progression,in vivo,2 (3.2) n (%)
same,TEAE: Dizziness,in vivo,9 (14.5) n (%)
same,TEAE: Dry mouth,in vivo,3 (4.8) n (%)
same,TEAE: Dry skin,in vivo,0 (0) n (%)
same,TEAE: Dyspnea,in vivo,4 (6.5) n (%)
same,TEAE: Edema peripheral,in vivo,1 (1.6) n (%)
same,TEAE: Fatigue,in vivo,21 (33.9) n (%)
same,TEAE: GGT increased,in vivo,7 (11.3) n (%)
same,TEAE: Gait disturbance,in vivo,2 (3.2) n (%)
same,TEAE: Headache,in vivo,3 (4.8) n (%)
same,TEAE: Hyperglycemia,in vivo,1 (1.6) n (%)
same,TEAE: Hypertension,in vivo,4 (6.5) n (%)
same,TEAE: Hypoalbuminemia,in vivo,5 (8.1) n (%)
same,TEAE: Hypocalcemia,in vivo,4 (6.5) n (%)
same,TEAE: Hypokalemia,in vivo,4 (6.5) n (%)
same,TEAE: Hypomagnesemia,in vivo,2 (3.2) n (%)
same,TEAE: Hyponatremia,in vivo,5 (8.1) n (%)
same,TEAE: Insomnia,in vivo,2 (3.2) n (%)
same,TEAE: Muscle spasms,in vivo,0 (0) n (%)
same,TEAE: Muscular weakness,in vivo,1 (1.6) n (%)
same,TEAE: Nasopharyngitis,in vivo,1 (1.6) n (%)
same,TEAE: Nausea,in vivo,23 (37.1) n (%)
same,TEAE: Neutropenia,in vivo,1 (1.6) n (%)
same,TEAE: Pain in extremity,in vivo,3 (4.8) n (%)
same,TEAE: Pyrexia,in vivo,11 (17.7) n (%)
same,TEAE: Rash,in vivo,1 (1.6) n (%)
same,TEAE: Tremor,in vivo,5 (8.1) n (%)
same,TEAE: Urinary tract infection,in vivo,5 (8.1) n (%)
same,TEAE: Vision blurred,in vivo,3 (4.8) n (%)
same,TEAE: Vomiting,in vivo,12 (19.4) n (%)
same,TEAE: Weight decrease,in vivo,4 (6.5) n (%)
same,TEAEs,in vivo,61 (98.4%) number of patients (percent)
same,"TEAEs, grade ≥ 3",in vivo,36 (58.1%) number of patients (percent)
same,TEAE leading to death,"no deaths considered related to M2698, trastuzumab or tamoxifen",6 (9.7) number of patients (percent)
same,Recommended phase 2 dose (RP2D) of M2698,once daily (QD),240 mg
same,Psychiatric event attributed to M2698,"one patient, 320 mg, cycle 2",grade 3 psychosis
same,Grade 2–3 gastrointestinal adverse events requiring dose reduction,patients with prolonged exposure to M2698 ≥ 320 mg,19.4%
